For data set [1], the system named is HDACs (HeLa cell nuclear extracts). The data set is described as follows: HDAC enzymatic activity, Biomol Color de Lys system. The class given is biochemical. The procedure, abridged: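 IC50 from sigmoidal dose-response fits of fluorescence (Ex 350–380, Em 440–460 nm). Compounds in DMSO dilution series incubated 1 h at 25 °C with HeLa nuclear extract HDACs and colorimetric substrate, pH 8.0 Tris/Cl buffer with NaCl, KCl, MgCl2, before developer termination.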

Each structure is given as a SMILES string.

In turn, `CC(=O)c1cc(-c2nc(N3CCOCC3)c3sc(CN(C)c4ncc(C(=O)NO)cn4)cc3n2)ccc1N` [Compound 281, 2-{[2-(3-Acetyl-4-amino-phenyl)-4-morpholin-4-yl-thieno[3,2-d]pyrimidin-6-ylmethyl]-methyl-amino}-pyrimidine-5-carboxylic acid hydroxyamide] returned a melting point of 156 to 158 °C. In data set [1], this compound yielded an IC50 of less than 100 nM.

Compound `O=C(NO)c1ccc(NCc2cc3nc(-c4cccc5[nH]ncc45)nc(N4CCOCC4)c3s2)cc1` [Compound 78, 4-((2-(1H-indazol-4-yl)-4-morpholinothieno[3,2-d]pyrimidin-6-yl)methylamino)-N-hydroxybenzamide] registered a melting point of 180 to 183 °C. The compound also registered an IC50 in data set [1] of less than 100 nM.

`CS(=O)(=O)N1CCN(Cc2cc3nc(-c4cccc5c4cnn5CCCCCCC(=O)NO)nc(N4CCOCC4)c3s2)CC1` [Compound 5, N-hydroxy-7-(4-(6-((4-(methylsulfonyl)piperazin-1-yl)methyl)-4-morpholinothieno[3,2-d]pyrimidin-2-yl)-1H-indazol-1-yl)heptanamide]: the melting point was 127 to 130 °C. The IC50 in data set [1] is less than 100 nM.

As for `CN(Cc1cc2nc(-c3cncnc3)nc(N3CCOCC3)c2s1)c1ncc(C(=O)NO)cn1` [Compound 119, N-hydroxy-2-(methyl((4-morpholino-2-(pyrimidin-5-yl)thieno[3,2-d]pyrimidin-6-yl)methyl)amino)pyrimidine-5-carboxamide], the melting point fell in the range of 159 to 160 °C. The IC50 in data set [1] is less than 100 nM.

For `CN(Cc1cc2nc(-c3ccc4[nH]cnc4c3)nc(N3CCOCC3)c2s1)c1ncc(C(=O)NO)cn1` [Compound 187, 2-(((2-(1H-benzo[d]imidazol-5-yl)-4-morpholinothieno[3,2-d]pyrimidin-6-yl)methyl)(methyl)amino)-N-hydroxypyrimidine-5-carboxamide], the melting point was 231 to 239 °C. Besides, in data set [1], the IC50 is less than 100 nM.

`CCCN(Cc1cc2nc(-c3cccc4[nH]ncc34)nc(N3CCOCC3)c2s1)c1ncc(C(=O)NO)cn1` [Compound 84, 2-(((2-(1H-indazol-4-yl)-4-morpholinothieno[3,2-d]pyrimidin-6-yl)methyl)(propyl)amino)-N-hydroxypyrimidine-5-carboxamide] returned a melting point of 224 to 226 °C. The compound further yielded an IC50 in data set [1] of less than 100 nM.

The compound `CS(=O)(=O)N1CCN(Cc2cc3nc(-c4ccc(OCCCCC(=O)NO)cc4)nc(N4CCOCC4)c3s2)CC1` [Compound 319, N-Hydroxy-5-(4-(6-((4-(methylsulfonyl)piperazin-1-yl)methyl)-4-morpholinothieno[3,2-d]pyrimidin-2-yl)phenoxy)pentanamide] had a melting point of 140 to 144 °C. This compound registered an IC50 in data set [1] of 100 to 1000 nM.

`CNc1ccc(-c2nc(N3CCOCC3)c3sc(S(=O)(=O)NCC4CCN(c5ncc(C(=O)NO)cn5)CC4)cc3n2)cn1` [Compound 310, N-Hydroxy-2-(4-((2-(6-(methylamino)pyridin-3-yl)-4-morpholinothieno[3,2-d]pyrimidine-6-sulfonamido)methyl)piperidin-1-yl)pyrimidine-5-carboxamide] yielded a melting point of 190 to 197 °C. For the same compound, in data set [1], the concentration for half-maximal inhibition (IC50) is less than 100 nM.

Turning to `CN(Cc1cc2nc(-c3ccc(N)c(Cl)c3)nc(N3CCOCC3)c2s1)c1ncc(C(=O)NO)cn1` [Compound 275, 2-(((2-(4-Amino-3-chlorophenyl)-4-morpholinothieno[3,2-d]pyrimidin-6-yl)methyl)(methyl)amino)-N-hydroxypyrimidine-5-carboxamide], the melting point is 241 to 246 °C. The compound also came in with an IC50 in data set [1] of less than 100 nM.

For `CN(Cc1cc2nc(-c3cccc(SCCO)c3)nc(N3CCOCC3)c2s1)c1ncc(C(=O)NO)cn1` [Compound 290, N-Hydroxy-2-(((2-(3-(2-hydroxyethylthio)phenyl)-4-morpholinothieno[3,2-d]pyrimidin-6-yl)methyl)(methyl)amino)pyrimidine-5-carboxamide], the melting point lay within 188 to 192 °C. For the same compound, the IC50 in data set [1] was less than 100 nM.

As usually defined, the IC50 is the point on the concentration scale where inhibition reaches its midpoint. For orientation: melting point means the temperature of the solid-liquid transition.

Values taken from patent US8906909B2 (Curis, Inc., priority 2009, dated 2014).
